Test results taken from patent US20120184556A1, “SUBSTITUTED ENZOIMIDAZOLESULFONAMIDES AND SUBSTITUTED INDOLESULFONAMIDES AS MGLUR4 POTENTIATORS” (priority 2009, published 2012).
Structures can show the parent of a compound that is named as a salt.

Biological target: T1, human mGluR4 (Homo sapiens, UniProt Q14833)
T1 construct: expressed in transfected cells; host or cells: Chinese Hamster Ovary (CHO) cells
Assay: human mGluR4 potentiation assay, CHO cells, Fluo-4 calcium fluorescence, agonist EC20
Type: cell-based
Details: for Emax: CHO, maximum extent of potentiation, human mGluR4, read-out: GluMax; for EC50: potentiation of human mGluR4 response to EC20 agonist, read-out: hEC50
Description: The disclosed compounds and compositions can be evaluated for their ability to act as a potentiator of metabotropic glutamate receptor activity, in particular mGluR4 activity, by any suitable known methodology known in the art. For example, Chinese Hamster Ovary (CHO) cells transfected with human mGluR4 or HEK cells co-transfected with rat mGluR4 and the G-protein regulated Inwardly Rectifying Potassium channel (GIRK) were plated in clear bottom assay plates for assay in a Hamamatsu FDSS Fluorometric Plate Reader. The cells were loaded with either the Ca2+-sensitive fluorescent dye Fluo-4 or the thallium responsive dye BTC, AM and the plates were washed and placed into a suitable kinetic plate reader. For human mGluR4 assays, a fluorescence baseline was established for 3-5 seconds, the disclosed compounds were then added to the cells, and the response in cells was measured. Approximately two and a half minutes later, a concentration of mGluR4 agonist (e.g. glutamate or L-AP4) eliciting approximately 20% (EC20) of the maximal agonist response was added to the cells, and the response was measured. Two minutes later, a concentration of mGluR4 agonist (e.g. glutamate or L-AP4) eliciting 80% (EC80) of the maximal agonist response was added to the cells, and the response was measured. For rat mGluR4/GIRK experiments, a baseline was established for approximately five seconds, disclosed compounds were added, and either an EC20 or EC80 concentration of agonist was added approximately two and one half minutes later. Potentiation of the agonist response of mGluR4 by the disclosed compounds was observed as an increase in response to the EC20 concentration of agonist in the presence of compound compared to the response to agonist in the absence of compound. Similarly, antagonism of the agonist response of mGluR4 by the disclosed compounds was observed as a decrease in response to the EC80 concentration of agonist in the presence of compound compared to the response to agonist in the absence of compound.
The above described assay operated in two modes. In the first mode, a range of concentrations of the disclosed compounds are added to cells, followed by a single fixed concentration of agonist. If the compound acts as a potentiatior, an EC50 value for potentiation and a maximum extent of potentiation by the compound at this concentration of agonist is determined by non-linear curve fitting. If the compound acts as a noncompetitive antagonist, an IC50 value is determined by non-linear curve fitting. In the second mode, several fixed concentrations of the disclosed compounds are added to various wells on a plate, followed by a range in concentrations of agonist for each concentration of disclosed compound. The EC50 values for the agonist at each concentration of compound are determined by non-linear curve fitting. A decrease in the EC50 value of the agonist with increasing concentrations of the sample compound (a leftward shift of the agonist concentration-response curve) is an indication of the degree of mGluR4 potentiation at a given concentration of the sample compound. A decrease in the maximal response of the agonist with increasing concentrations of the sample compounds, with or without a rightward shift in agonist potency, is an indication of the degree of noncompetitive antagonism at mGluR4. The second mode also indicates whether the sample compounds also affect the maximum response to mGluR4 to agonists.

T1 sequence (Q14833 33-912): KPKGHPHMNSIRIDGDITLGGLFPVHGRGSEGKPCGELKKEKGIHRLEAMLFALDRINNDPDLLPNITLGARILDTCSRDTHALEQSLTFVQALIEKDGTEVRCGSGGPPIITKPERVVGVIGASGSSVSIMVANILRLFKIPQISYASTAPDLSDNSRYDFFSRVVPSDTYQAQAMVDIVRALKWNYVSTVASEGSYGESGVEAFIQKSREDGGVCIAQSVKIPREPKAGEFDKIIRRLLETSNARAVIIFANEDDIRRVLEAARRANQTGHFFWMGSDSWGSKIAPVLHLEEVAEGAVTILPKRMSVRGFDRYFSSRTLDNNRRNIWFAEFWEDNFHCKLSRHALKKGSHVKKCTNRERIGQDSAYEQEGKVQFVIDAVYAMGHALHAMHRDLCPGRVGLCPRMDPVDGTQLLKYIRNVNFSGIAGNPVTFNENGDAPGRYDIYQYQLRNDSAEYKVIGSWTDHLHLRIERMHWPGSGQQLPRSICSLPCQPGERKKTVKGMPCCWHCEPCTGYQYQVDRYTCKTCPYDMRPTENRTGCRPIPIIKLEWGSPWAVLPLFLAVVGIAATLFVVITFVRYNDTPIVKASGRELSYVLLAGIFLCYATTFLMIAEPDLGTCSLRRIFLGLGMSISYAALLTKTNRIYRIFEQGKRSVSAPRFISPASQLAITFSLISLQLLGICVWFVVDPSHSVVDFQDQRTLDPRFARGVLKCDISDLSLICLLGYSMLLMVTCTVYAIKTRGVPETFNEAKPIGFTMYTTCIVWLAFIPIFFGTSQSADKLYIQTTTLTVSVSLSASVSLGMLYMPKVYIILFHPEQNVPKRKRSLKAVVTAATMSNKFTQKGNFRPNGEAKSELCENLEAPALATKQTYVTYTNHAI

For `O=S(=O)(Nc1ccccc1Cl)c1ccc2[nH]c(-c3cccc4c3OCO4)nc2c1` [Example 20, 2-(benzo[d][1,3]dioxol-4-yl)-N-(2-chlorophenyl)-1H-benzo[d]imidazole-5-sulfonamide], the Emax was 49% and the EC50 was 172 nM.

For `O=S(=O)(Nc1ccccc1Cl)c1ccc2[nH]c(-c3ncccc3F)nc2c1` [Example 15, N-(2-Chlorophenyl)-2-(3-fluoropyridin-2-yl)-1H-benzo[d]imidazole-5-sulfonamide], the Emax was 192% and the EC50 was 747 nM.

Compound `Cc1nc[nH]c1-c1nc2cc(S(=O)(=O)Nc3ccccc3Cl)ccc2[nH]1` [Example 44, N-(2-chlorophenyl)-2-(4-methyl-1H-imidazol-5-yl)-1H-benzo[d]imidazole-5-sulfonamide] has an Emax of 36% and an EC50 of 13400 nM.

Compound `O=S(=O)(Nc1ccccc1Cl)c1ccc2[nH]c(-c3ccc(Cl)o3)nc2c1` [Example 30, 2-(5-chlorofuran-2-yl)-N-(2-chlorophenyl)-1H-benzo[d]imidazole-5-sulfonamide] has an Emax of 76% and an EC50 of 199 nM.

For `O=S(=O)(Nc1ccccc1Cl)c1ccc2[nH]c(-c3ccc(C(F)(F)F)o3)nc2c1` [Example 26, N-(2-chlorophenyl)-2-(5-(trifluoromethyl)furan-2-yl)-1H-benzo[d]imidazole-5-sulfonamide], the Emax was 68% and the EC50 was 328 nM.

Compound `O=S(=O)(Nc1ccccc1Cl)c1ccc2[nH]c(-c3c(F)cccc3Cl)nc2c1` [Example 22, 2-(2-chloro-6-fluorophenyl)-N-(2-chlorophenyl)-1H-benzo[d]imidazole-5-sulfonamide] has an Emax of 59% and an EC50 of 5750 nM.

Compound `O=S(=O)(Nc1ccc(F)cc1F)c1ccc2[nH]c(-c3ccsc3)nc2c1` [Example 42, N-(2,4-difluorophenyl)-2-(thiophen-3-yl)-1H-benzo[d]imidazole-5-sulfonamide] has an Emax of 50% and an EC50 of 226 nM.

`O=S(=O)(Nc1ccccc1Cl)c1ccc2[nH]c(-c3cscn3)nc2c1` [Example 10, N-(2-Chlorophenyl)-2-(thiazol-4-yl)-1H-benzo[d]imidazole-5-sulfonamide bis TFA salt] was tested, and the Emax was 169% and the EC50 was 310 nM.

For `Cc1ccc(-c2nc3cc(S(=O)(=O)Nc4ccccc4Cl)ccc3[nH]2)o1` [Example 29, N-(2-chlorophenyl)-2-(5-methylfuran-2-yl)-1H-benzo[d]imidazole-5-sulfonamide], the Emax was 52% and the EC50 was 76 nM.

For `O=S(=O)(Nc1ccccc1Cl)c1ccc2[nH]c(-c3cccnc3)nc2c1` [Example 5, N-(2-chlorophenyl)-2-(pyridin-3-yl)-1H-benzo[d]imidazole-5-sulfonamide], the Emax was 84% and the EC50 was 5250 nM.

For `O=S(=O)(Nc1ccccc1Cl)c1ccc2[nH]c(-c3ccsc3)nc2c1` [Example 6, N-(2-Chlorophenyl)-2-(thiophen-3-yl)-1H-benzo[d]imidazole-5-sulfonamide], the Emax was 111% and the EC50 was 361 nM.

Work on `O=S(=O)(Nc1ccccc1Cl)c1ccc2[nH]c(-c3ccco3)nc2c1` [Example 25, N-(2-chlorophenyl)-2-(furan-2-yl)-1H-benzo[d]imidazole-5-sulfonamide] yielded an Emax of 96% and an EC50 of 747 nM.

With `O=S(=O)(Nc1ccccc1Cl)c1ccc2[nH]c(-c3cccc(Cl)n3)nc2c1` [Example 12, N-(2-Chlorophenyl)-2-(6-chloropyridin-2-yl)-1H-benzo[d]imidazole-5-sulfonamide] the Emax was 98% and the EC50 was 116 nM.

Work on `O=S(=O)(Nc1ccccc1Cl)c1ccc2[nH]c(-c3ccccc3)nc2c1` [Example 2, N-(2-Chlorophenyl)-2-phenyl-1H-benzo[d]imidazole-5-sulfonamide TFA salt] yielded an Emax of 77% and an EC50 of 353 nM.

For `O=S(=O)(Nc1ccccc1Cl)c1ccc2[nH]c(-c3cccc(F)n3)nc2c1` [Example 13, N-(2-Chlorophenyl)-2-(6-fluoropyridin-2-yl)-1H-benzo[d]imidazole-5-sulfonamide], the Emax was 145% and the EC50 was 111 nM.

For `O=S(=O)(Nc1ccccc1Cl)c1ccc2[nH]c(-c3c(F)cccc3F)nc2c1` [Example 24, N-(2-chlorophenyl)-2-(2,6-difluorophenyl)-1H-benzo[d]imidazole-5-sulfonamide], the Emax was 160% and the EC50 was > 10000 nM.

In the case of `O=S(=O)(Nc1ccccc1Cl)c1ccc2[nH]c(-c3cc(Br)no3)nc2c1` [Example 34, 2-(3-bromoisoxazol-5-yl)-N-(2-chlorophenyl)-1H-benzo[d]imidazole-5-sulfonamide], the Emax is reported as 149% and the EC50 is reported as 1100 nM.

`O=S(=O)(Nc1ccccc1Cl)c1ccc2[nH]c(-c3ccno3)nc2c1` [Example 43, N-(2-chlorophenyl)-2-(isoxazol-5-yl)-1H-benzo[d]imidazole-5-sulfonamide] was tested, and the Emax was 69% and the EC50 was 2830 nM.

`O=S(=O)(Nc1ccccc1Cl)c1ccc2[nH]c(-c3cccnn3)nc2c1` [Example 8, N-(2-chlorophenyl)-2-(pyridazin-3-yl)-1H-benzo[d]imidazole-5-sulfonamide TFA salt] was tested, and the Emax was 204% and the EC50 was 5670 nM.

Compound `O=S(=O)(Nc1ccc(F)cc1F)c1ccc2[nH]c(-c3nccs3)nc2c1` [Example 47, N-(2,4-difluorophenyl)-2-(thiazol-2-yl)-1H-benzo[d]imidazole-5-sulfonamide] has an Emax of 147% and an EC50 of 709 nM.
